Laboratory results taken from the supplement of paper PMC10307832.

Columns and labels:
Experiment in all cases: relative viability (nuclei count vs DMSO), 5 days (fraction); higher = more cells survive
Tosedostat + Phenformin = compound: CC(C)C[C@@H](C(=O)N[C@H](C(=O)OC1CCCC1)c1ccccc1)[C@H](O)C(=O)NO [Tosedostat] + N=C(N)NC(=N)NCCc1ccccc1 [Phenformin] (partner 250 µM)
Method in brief: (§1)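 After 5 days of treatment, lung cancer cells in 1536-well plates were fixed and stained in a single step (final 0.05% Triton X-100, 1% formaldehyde, 1 ug/ml Hoechst) and their nuclei counted on 4× images. Treatment had been applied by pin tool the day after seeding as one drug alone or as a fixed anchor-drug dose with five library-drug doses (not always all listed) in √10 steps. Relative viability is the nuclei count of treated wells divided by that of vehicle wells, and values are medians of duplicate plates.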

Tosedostat + Linsitinib = compound: CC(C)C[C@@H](C(=O)N[C@H](C(=O)OC1CCCC1)c1ccccc1)[C@H](O)C(=O)NO [Tosedostat] + C[C@]1(O)C[C@@H](c2nc(-c3ccc4ccc(-c5ccccc5)nc4c3)c3c(N)nccn32)C1 [Linsitinib] (partner 1 µM)
Method in brief: as §1

[1] = compound: CC1=NN=C(O1)C2=NN=C(C=C2)N3CCC(CC3)OC4=C(C=CC(=C4)F)Cl + CCNC(=O)c1noc(-c2cc(C(C)C)c(O)cc2O)c1-c1ccc(CN2CCOCC2)cc1 [Luminespib] (partner 0.01 µM)
Method in brief: as §1

Tosedostat + OSI-027 = compound: CC(C)C[C@@H](C(=O)N[C@H](C(=O)OC1CCCC1)c1ccccc1)[C@H](O)C(=O)NO [Tosedostat] + COc1cccc2cc(-c3nc([C@H]4CC[C@H](C(=O)O)CC4)n4ncnc(N)c34)[nH]c12 [OSI-027] (partner 0.5 µM)
Method in brief: as §1

| Cell Line | relative viability (Tosedostat + Phenformin; first compound 0.02 µM) | relative viability (Tosedostat + Phenformin; first compound 0.06325 µM) | relative viability (Tosedostat + Phenformin; first compound 0.2 µM) | relative viability (Tosedostat + Phenformin; first compound 0.6325 µM) | relative viability (Tosedostat + Phenformin; first compound 2 µM) | relative viability (Tosedostat + Linsitinib; first compound 0.02 µM) | relative viability (Tosedostat + Linsitinib; first compound 0.06325 µM) | relative viability (Tosedostat + Linsitinib; first compound 0.2 µM) | relative viability (Tosedostat + Linsitinib; first compound 0.6325 µM) | relative viability (Tosedostat + Linsitinib; first compound 2 µM) | relative viability ([1]; first compound 0.253 µM) | relative viability ([1]; first compound 2.53 µM) | relative viability ([1]; first compound 8 µM) | relative viability (Tosedostat + OSI-027; first compound 0.02 µM) | relative viability (Tosedostat + OSI-027; first compound 0.06325 µM) | relative viability (Tosedostat + OSI-027; first compound 0.2 µM) | relative viability (Tosedostat + OSI-027; first compound 0.6325 µM) | relative viability (Tosedostat + OSI-027; first compound 2 µM) | relative viability ([1]; first compound 0.8 µM) |
| --- | --- | --- | --- | --- | --- | --- | --- | --- | --- | --- | --- | --- | --- | --- | --- | --- | --- | --- | --- |
| PC-14 | 0.653 | 0.54 | 0.452 | 0.448 | 0.38 | 0.97 | 0.973 | 0.982 | 0.915 | 0.918 | 0.163 | 0.22 | 0.142 | 0.959 | 0.818 | 0.637 | 0.5 | 0.449 |  |
| SK-MES-1 | 0.696 | 0.686 | 0.663 | 0.568 | 0.54 | 1.2 | 1.05 | 1.06 | 1.01 | 0.983 | 0.726 | 0.631 | 0.547 | 0.532 | 0.59 | 0.595 | 0.538 | 0.396 | 0.725 |
| NCI-H23 | 0.782 | 0.802 | 0.754 | 0.707 | 0.404 | 0.612 | 0.56 | 0.548 | 0.474 | 0.416 | 0.222 | 0.229 | 0.189 | 0.702 | 0.599 | 0.683 | 0.494 | 0.372 | 0.199 |
| NCI-H596 | 0.734 | 0.762 | 0.761 | 0.72 | 0.599 | 1.21 | 1.07 | 1.22 | 1.05 | 1.06 | 0.938 | 0.945 | 0.889 | 0.826 | 0.924 | 0.909 | 0.564 | 0.629 | 0.849 |
| SK-LU-1 | 0.598 | 0.535 | 0.52 | 0.428 | 0.525 | 1.1 | 1.07 | 0.9 | 0.855 | 0.906 | 0.218 | 0.207 | 0.185 | 0.43 | 0.348 | 0.337 | 0.297 | 0.329 |  |
| NCI-H650 | 0.497 | 0.478 | 0.435 | 0.442 | 0.405 | 0.853 | 0.84 | 0.679 | 0.656 | 0.494 | 0.77 | 0.703 | 0.793 | 0.611 | 0.5 | 0.454 | 0.455 | 0.364 | 0.685 |
| LU99A | 0.925 | 0.903 | 0.821 | 0.641 | 0.547 | 0.508 | 0.555 | 0.528 | 0.561 | 0.504 | 0.224 | 0.246 | 0.199 | 0.324 | 0.286 | 0.292 | 0.312 | 0.249 | 0.227 |
| NCI-H520 | 0.391 | 0.593 | 0.585 | 0.712 | 0.782 | 1.13 | 0.962 | 0.944 | 1.02 | 1.06 | 0.207 | 0.199 | 0.2 | 0.215 | 0.285 |  | 0.335 | 0.22 | 0.217 |
| NCI-H661 | 0.259 | 0.259 | 0.312 | 0.304 | 0.265 | 0.552 | 0.592 | 0.555 | 0.494 | 0.495 | 0.785 | 0.714 | 0.549 | 0.706 | 0.767 | 0.714 | 0.648 | 0.561 | 0.751 |
| PC-3 [JPC-3] | 0.468 | 0.463 | 0.491 | 0.442 | 0.408 | 1.03 | 1 | 1 | 0.946 | 0.653 | 0.674 | 0.611 | 0.603 | 0.693 | 0.828 | 0.73 | 0.614 | 0.609 | 0.686 |
| RERF-LC-KJ | 0.406 | 0.395 | 0.461 | 0.364 | 0.312 | 0.933 | 0.875 | 0.854 | 0.839 | 0.795 | 0.75 | 0.612 | 0.673 | 0.588 | 0.586 | 0.486 | 0.452 | 0.418 | 0.647 |
| NCI-H1793 | 0.252 | 0.321 | 0.284 | 0.31 | 0.203 | 0.678 | 0.984 | 0.711 | 0.641 | 0.873 | 0.132 | 0.166 | 0.405 | 0.264 | 0.271 | 0.293 | 0.258 | 0.24 | 0.348 |
| NCI-H1915 | 0.374 | 0.366 | 0.365 | 0.35 | 0.358 | 1.16 | 1.11 | 1.11 | 1.1 | 0.961 | 0.615 | 0.503 | 0.312 | 0.659 | 0.614 | 0.643 | 0.585 | 0.532 | 0.393 |
| H3255 | 0.361 | 0.369 | 0.386 | 0.407 | 0.402 | 0.94 | 0.949 | 0.917 | 0.984 | 0.988 | 0.82 | 0.727 | 0.66 | 0.67 | 0.522 | 0.603 | 0.513 | 0.509 | 0.737 |
| 201T | 0.425 | 0.445 | 0.461 | 0.428 | 0.445 | 0.99 | 1.09 | 1.11 | 1.21 | 1.17 | 0.486 | 0.499 | 0.566 | 0.761 | 0.818 | 0.755 | 0.949 | 0.718 | 0.589 |
| NCI-H2405 | 0.398 | 0.407 | 0.397 | 0.368 | 0.359 | 0.883 | 0.963 | 0.925 | 0.965 | 0.862 | 0.558 | 0.534 | 0.612 | 0.662 | 0.637 | 0.707 | 0.596 | 0.585 | 0.434 |
| HOP-62 | 0.663 | 0.615 | 0.685 | 0.569 | 0.437 | 1.07 | 0.977 | 0.849 | 0.693 | 0.712 | 0.63 | 0.697 | 0.634 | 0.836 | 0.813 | 0.885 | 0.671 | 0.664 | 0.638 |
